Read-outs that look alike come from different tables or passages of the source.
Key:
[1] = test system: peripheral blood mononuclear cells (PBMC) stimulated with allogeneic PBMC or EBV-transformed human B cells (RPMI1788); assay: Mixed lymphocyte reaction (MLR) assay; type: cell-based
Procedure, shortened: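 Responder PBMC co-cultured in triplicate with 30 Gy-irradiated allogeneic PBMC or RPMI1788 B cells plus compound (DMSO stock 10 mM, diluted in medium). After 5 days at 37° C, 1 μCi [3H]-thymidine added for 16 h more; incorporated cpm counted and proliferation inhibition calculated.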

[2] = test system: production of human TNF-α by PBMC in response to LPS; assay: TNF-α assay (LPS-stimulated PBMC, sandwich ELISA); type: cell-based
Description: Peripheral blood mononuclear cells (herein referred as PBMC), in response to stimulation by lipopolysaccharide (hereinafter LPS), a gram-negative bacterial endotoxin, produce various […], in particular human TNF-α. Inhibition of the activation of PBMC can therefore be measured by the level of suppression of the production of TNF-α by PBMC in response to stimulation by LPS. Inhibition measurement was performed as follows: PBMC were isolated from heparinized peripheral blood by density gradient centrifugation over Lymphoprep (commercially available from Nycomed, Norway). LPS was then added to the PMBC suspension in complete medium (10^6 cells/ml) at a final concentration of 1 μg/ml. The pteridine derivative to be tested was added at different concentrations (0.1 μM, 1 μM and 10 μM) and the cells were incubated at 37° C. for 72 hours in 5% CO2. The supernatants were collected, then TNF-α concentrations were measured with respectively an anti-TNF-α antibody in a sandwich ELISA (Duo Set ELISA human TNFα, commercially available from R&D Systems, United Kingdom). The colorimetric reading of the ELISA was measured by a Multiskan RC plate reader (commercially available from ThermoLabsystems, Finland) at 450 nm (reference wavelength: 690 nm). Data analysis was performed with Ascent software 2.6. (also from ThermoLabsystems, Finland): a standard curve (recombinant human TNFα) was drawn and the amount (pg/ml) of each sample on the standard curve was determined. The % suppression of human TNFα production by the pyrido[3,2-d]pyrimidine derivatives of the invention was calculated using the formula: [formula]

[3] = 50% suppression of the MLR, [3H]-thymidine incorporation, read-out: MLR
[4] = LPS 1 μg/ml, 72 hours, read-out: TNF α
[5] = Homo sapiens, RPMI-1788, 50% suppression of the MLR, [3H]-thymidine incorporation, read-out: MLR
[6] = Homo sapiens, PBMC, LPS 1 μg/ml, 72 hours, read-out: TNF α

| Structure (SMILES) | IC50 [1, 3] | IC50 [2, 4] | IC50 [1, 5] | IC50 [2, 6] | further results |
| --- | --- | --- | --- | --- | --- |
| COc1ccc(-c2ccc3nc(N)nc(NCCN4CCOCC4)c3n2)cc1OC [Example 33, 2-amino-4-[4-(2-aminoethyl)morpholino]-6-(3,4-dimethoxyphenyl)-pyrido[3,2-d]pyrimidine] | 1.9 µM | 0.7 µM | – | – | – |
| COc1ccc(-c2ccc3nc(N)nc(NCC(OC)OC)c3n2)cc1OC [Example 34, 2-amino-4-(2,2-dimethoxyethylamino)-6-(3,4-dimethoxyphenyl)pyrido[3,2-d]pyrimidine] | – | – | – | – | IC50 ([1]; Homo sapiens, RPMI-1788, read-out: MLR (μM)): 0.8 µM; IC50 ([2]; Homo sapiens, PBMC, 72 h, read-out: TNF α (μM)): 0.6 µM |
| COc1ccc(-c2ccc3nc(N)nc(NCc4ccccn4)c3n2)cc1OC [Example 35, 2-amino-4-[2-(aminomethyl)pyridino]-6-(3,4-dimethoxyphenyl)-pyrido[3,2-d]pyrimidine] | 0.8 µM | 0.7 µM | – | – | – |
| COc1ccc(-c2ccc3nc(N)nc(N4CCN(Cc5ccc6c(c5)OCO6)CC4)c3n2)cc1OC [Example 50, 2-amino-4-(1-piperonyl-piperazin-1-yl)-6-(3,4-dimethoxyphenyl)-pyrido[3,2-d]pyrimidine] | 7.4 µM | 8.5 µM | – | – | – |
| COc1ccc(-c2ccc3nc(N)nc(N4CCN(Cc5ccccc5)CC4)c3n2)cc1OC [Example 52, 2-amino-4-(1-benzylpiperazin-1-yl)-6-(3,4-dimethoxyphenyl)-pyrido[3,2-d]pyrimidine] | 0.8 µM | 0.46 µM | – | – | – |
| COc1ccc(-c2ccc3nc(N)nc(N4CCN(C(=O)Nc5cc(Cl)nc(Cl)c5)CC4)c3n2)cc1OC [Example 55, 2-amino-4(N-2,6-dichloro-pyridinyl-carbamoyl-piperazin-1-yl)-6-(3,4-dimethoxyphenyl)-pyrido[3,2-d]pyrimidine] | 0.3 µM | 0.4 µM | – | – | – |
| COc1nc(N2CCN(C(=O)Nc3cccc(C)c3)CC2)c2nc(-c3ccc(OC)c(OC)c3)ccc2n1 [Example 90, 2-methoxy-4-[(N-3-methyl-phenylcarbamoyl)-piperazin-1-yl]-6-(3,4-dimethoxy-phenyl)-pyrido[3,2-d]pyrimidine] | 0.14 µM | 0.5 µM | – | – | – |
| COc1cc(-c2ccc3nc(N)nc(N4CCOCC4)c3n2)ccc1O [Example 96, 2-amino-4-(N-morpholino)-6-(4-hydroxy-3-methoxy)-pyrido[3,2-d]pyrimidine] | 0.8 µM | 0.6 µM | – | – | – |
| CCOc1ccc(-c2ccc3nc(N)nc(N4CCOCC4)c3n2)cc1OC [Example 97, 2-amino-4-(N-morpholino)-6-(4-ethoxy-3-methoxyphenyl)-pyrido[3,2-d]pyrimidine] | 0.5 µM | 0.3 µM | – | – | – |
| COc1cc(-c2ccc3nc(N)nc(N4CCOCC4)c3n2)ccc1OC(C)C [Example 99, 2-amino-4-(N-morpholino)-6-(4-isopropoxy-3-methoxy-phenyl)-pyrido[3,2-d]pyrimidine] | 0.7 µM | 1 µM | – | – | – |
| COc1cc(-c2ccc3nc(N)nc(N4CCNCC4)c3n2)ccc1O [Example 100, 2-amino-4-(N-piperazin-1-yl)-6-(3-methoxy-4-hydroxyphenyl)-pyrido[3,2-d]pyrimidine] | 3.3 µM | 2.4 µM | – | – | – |
| COc1cc(-c2ccc3nc(N)nc(N4CCN(C(=O)Nc5ccc(F)cc5)CC4)c3n2)ccc1O [Example 101, 2-amino-4-[(N-4-fluoro-phenyl-carbamoyl)-piperazin-1-yl]-6-(4-hydroxy-3-methoxy-phenyl)-pyrido[3,2-d]pyrimidine] | 0.5 µM | 0.6 µM | – | – | – |
| CCOc1ccc(-c2ccc3nc(N)nc(N4CCN(C(=O)Nc5ccc(F)cc5)CC4)c3n2)cc1OC [Example 102] | 0.04 µM | 0.6 µM | – | – | – |
| COc1cc(-c2ccc3nc(N)nc(N4CCN(C(=O)Nc5ccc(F)cc5)CC4)c3n2)ccc1OC(C)C [Example 103, 2-amino-4-[(N-4-fluoro-phenyl-carbamoyl)-piperazin-1-yl]-6-(4-isopropoxy-3-methoxy-phenyl)-pyrido[3,2-d]pyrimidine] | 0.07 µM | 6.4 µM | – | – | – |
| COc1cc(-c2ccc3nc(N)nc(N4CCN(C(=O)Nc5cccc(C)c5)CC4)c3n2)ccc1O [Example 104, 2-amino-4-[(N-3-methyl-phenyl-carbamoyl)-piperazin-1-yl]-6-(4-hydroxy-3-methoxyphenyl)-pyrido[3,2-d]pyrimidine] | 0.4 µM | 0.3 µM | – | – | – |
| COc1ccc(-c2ccc3ncnc(N4CCN(c5ccc(C)cc5)CC4)c3n2)cc1OC [Example 105, 4-(4-methyl-phenyl-piperazin-1-yl)-6-(3,4-dimethoxy-phenyl)-pyrido[3,2-d]pyrimidine] | 0.8 µM | 0.09 µM | – | – | – |

| Structure (SMILES) | IC50 [1, 3] | IC50 [2, 4] | IC50 [1, 5] | IC50 [2, 6] | further results |
| --- | --- | --- | --- | --- | --- |
| COc1ccc(-c2ccc3ncnc(N4CCNCC4)c3n2)cc1OC [Example 107, 4-(N-piperazin-1-yl)-6-(3,4-dimethoxyphenyl)-pyrido[3,2-d]-pyrimidine] | 3.8 µM | 2.7 µM | – | – | – |
| COc1ccc(-c2ccc3ncnc(N4CCNCC4)c3n2)cc1C [Example 116, 4-(piperazin-1-yl)-6-(3-methyl-4-methoxyphenyl)-pyrido[3,2-d]pyrimidine] | – | – | 5.1 µM | 8.1 µM | – |
| Clc1ccc(-c2ccc3ncnc(N4CCOCC4)c3n2)cc1 [Example 124, 4-morpholino-6-(4-chlorophenyl)-pyrido[3,2-d]pyrimidine] | – | – | 7.2 µM | 10 µM | – |
| COc1ccc(-c2ccc3nc(N)nc(N4CCOCC4)c3n2)cc1C [Example 163, 2-amino-4-(morpholino)-6-(3-methyl-4-methoxyphenyl)pyrido[3,2-d]pyrimidine] | – | – | 3.6 µM | 6.5 µM | – |
| COc1ccc(-c2ccc3nc(N)nc(N4CCOCC4)c3n2)cc1Cl [Example 164, 2-amino-4-(morpholino)-6-(3-chloro-4-methoxyphenyl)pyrido[3,2-d]pyrimidine] | – | – | 0.6 µM | 1.5 µM | – |
| Nc1nc(N2CCOCC2)c2nc(-c3ccc4c(c3)OCCO4)ccc2n1 [Example 165, 2-amino-4-(morpholino)-6-(1,4-benzodioxane-phenyl)pyrido[3,2-d]pyrimidine] | 0.6 µM | 0.9 µM | – | – | – |
| CCOc1ccc(-c2ccc3nc(N)nc(N4CCOCC4)c3n2)cc1F [Example 166, 2-amino-4-morpholino-6-(3-fluoro-4-ethoxy-phenyl)-pyrido[3,2-d]pyrimidine] | – | – | 0.7 µM | 0.8 µM | – |
| CC(=O)N1CCN(c2nc(N)nc3ccc(-c4ccc5c(c4)OCO5)nc23)CC1 [Example 190, 2-amino-4-[N-acetyl-piperazin-1-yl]-6-(3,4-methylenedioxyphenyl)-pyrido[3,2-d]pyrimidine] | – | – | 0.8 µM | 4.8 µM | – |
| Nc1nc(N2CCN(CC(=O)Nc3nccs3)CC2)c2nc(-c3ccc4c(c3)OCO4)ccc2n1 [Example 191] | – | – | 0.4 µM | 3.5 µM | – |
| Nc1nc(N2CCN(C(=O)COc3ccc(Cl)cc3)CC2)c2nc(-c3ccc4c(c3)OCO4)ccc2n1 [Example 193, 2-amino-4-[N-(4-chlorophenoxy-acetyl)-piperazin-1-yl]-6-(3,4-methylenedioxyphenyl)-pyrido[3,2-d]pyrimidine] | – | – | 0.04 µM | 5.8 µM | – |
| Cc1cccc(NC(=O)N2CCN(c3nc(N)nc4ccc(-c5ccc6c(c5)OCO6)nc34)CC2)c1 [Example 196, 2-amino-4-[N-(3-methyl-phenyl-carbamoyl)-piperazin-1-yl]-6-(3,4-methylenedioxyphenyl)-pyrido[3,2-d]pyrimidine] | – | – | 0.03 µM | 5.3 µM | – |
| CC(=O)N1CCN(c2nc(N)nc3ccc(-c4ccc5c(c4)OCCO5)nc23)CC1 [Example 199, 2-amino-4-[N-acetyl-piperazin-1-yl]-6-(1,4-benzodioxane)-pyrido[3,2-d]pyrimidine] | – | – | 4.8 µM | 2.9 µM | – |
| Nc1nc(N2CCN(CC(=O)Nc3nccs3)CC2)c2nc(-c3ccc4c(c3)OCCO4)ccc2n1 [Example 201] | – | – | 0.8 µM | 3.4 µM | – |
| Nc1nc(N2CCOCC2)c2nc(-c3ccccc3Br)ccc2n1 [Example 210, 2-amino-4-morpholino-6-(2-bromo-phenyl)-pyrido[3,2-d]pyrimidine] | – | – | 1.8 µM | 7.2 µM | – |
| COc1ccc(-c2ccc3ncnc(N4CCN(C(=O)Nc5cccc(Cl)c5)CC4)c3n2)cc1OCC1CC1 [Example 215, 4-[N-(3-chloro-phenylcarbamoyl)-piperazin-1-yl]-6-(3-cyclopropylmethoxy-4-methoxy-phenyl)-pyrido[3,2-d]pyrimidine] | – | – | 0.2 µM | 0.8 µM | – |
| COc1ccc(-c2ccc3nc(N)nc(N4CC[C@H](N)C4)c3n2)cc1OC [Example 219, 2-amino-4-[(S)-3-(amino)pyrrolidine]-6-(3,4-dimethoxyphenyl)-pyrido[3,2-d]pyrimidine] | – | – | 5.5 µM | 1.9 µM | – |
